The target of assay [1] is T1, human Nav1.5 channels stably expressed in HEK 293 cells (Homo sapiens, UniProt Q14524).
T1 construct: expressed in transfected cells
The experiment in a line: PatchXpress 7000 automated patch-clamp, sodium current. Type of assay: cell-based. Conditions: selectivity over Nav1.5. A digest of the protocol:
(§1)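 IC50 values came from Hill-equation fits of rundown-corrected inhibition. PatchXpress recordings at 22° C held cells 20 mV negative to V0.5 inact and applied 10 Hz trains of 30 ms steps to −20 mV (Nav1.7) or an 8000 ms prepulse 7 mV positive to V0.5 inact. […]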
(The patch-clamp technique gives a direct electrical read-out from membranes.)

The target of assay [2] is T2, human Nav1.7 channels stably expressed in HEK 293 cells (Homo sapiens, UniProt Q15858).
T2 construct: expressed in transfected cells
T2 sequence (Q15858 whole entry): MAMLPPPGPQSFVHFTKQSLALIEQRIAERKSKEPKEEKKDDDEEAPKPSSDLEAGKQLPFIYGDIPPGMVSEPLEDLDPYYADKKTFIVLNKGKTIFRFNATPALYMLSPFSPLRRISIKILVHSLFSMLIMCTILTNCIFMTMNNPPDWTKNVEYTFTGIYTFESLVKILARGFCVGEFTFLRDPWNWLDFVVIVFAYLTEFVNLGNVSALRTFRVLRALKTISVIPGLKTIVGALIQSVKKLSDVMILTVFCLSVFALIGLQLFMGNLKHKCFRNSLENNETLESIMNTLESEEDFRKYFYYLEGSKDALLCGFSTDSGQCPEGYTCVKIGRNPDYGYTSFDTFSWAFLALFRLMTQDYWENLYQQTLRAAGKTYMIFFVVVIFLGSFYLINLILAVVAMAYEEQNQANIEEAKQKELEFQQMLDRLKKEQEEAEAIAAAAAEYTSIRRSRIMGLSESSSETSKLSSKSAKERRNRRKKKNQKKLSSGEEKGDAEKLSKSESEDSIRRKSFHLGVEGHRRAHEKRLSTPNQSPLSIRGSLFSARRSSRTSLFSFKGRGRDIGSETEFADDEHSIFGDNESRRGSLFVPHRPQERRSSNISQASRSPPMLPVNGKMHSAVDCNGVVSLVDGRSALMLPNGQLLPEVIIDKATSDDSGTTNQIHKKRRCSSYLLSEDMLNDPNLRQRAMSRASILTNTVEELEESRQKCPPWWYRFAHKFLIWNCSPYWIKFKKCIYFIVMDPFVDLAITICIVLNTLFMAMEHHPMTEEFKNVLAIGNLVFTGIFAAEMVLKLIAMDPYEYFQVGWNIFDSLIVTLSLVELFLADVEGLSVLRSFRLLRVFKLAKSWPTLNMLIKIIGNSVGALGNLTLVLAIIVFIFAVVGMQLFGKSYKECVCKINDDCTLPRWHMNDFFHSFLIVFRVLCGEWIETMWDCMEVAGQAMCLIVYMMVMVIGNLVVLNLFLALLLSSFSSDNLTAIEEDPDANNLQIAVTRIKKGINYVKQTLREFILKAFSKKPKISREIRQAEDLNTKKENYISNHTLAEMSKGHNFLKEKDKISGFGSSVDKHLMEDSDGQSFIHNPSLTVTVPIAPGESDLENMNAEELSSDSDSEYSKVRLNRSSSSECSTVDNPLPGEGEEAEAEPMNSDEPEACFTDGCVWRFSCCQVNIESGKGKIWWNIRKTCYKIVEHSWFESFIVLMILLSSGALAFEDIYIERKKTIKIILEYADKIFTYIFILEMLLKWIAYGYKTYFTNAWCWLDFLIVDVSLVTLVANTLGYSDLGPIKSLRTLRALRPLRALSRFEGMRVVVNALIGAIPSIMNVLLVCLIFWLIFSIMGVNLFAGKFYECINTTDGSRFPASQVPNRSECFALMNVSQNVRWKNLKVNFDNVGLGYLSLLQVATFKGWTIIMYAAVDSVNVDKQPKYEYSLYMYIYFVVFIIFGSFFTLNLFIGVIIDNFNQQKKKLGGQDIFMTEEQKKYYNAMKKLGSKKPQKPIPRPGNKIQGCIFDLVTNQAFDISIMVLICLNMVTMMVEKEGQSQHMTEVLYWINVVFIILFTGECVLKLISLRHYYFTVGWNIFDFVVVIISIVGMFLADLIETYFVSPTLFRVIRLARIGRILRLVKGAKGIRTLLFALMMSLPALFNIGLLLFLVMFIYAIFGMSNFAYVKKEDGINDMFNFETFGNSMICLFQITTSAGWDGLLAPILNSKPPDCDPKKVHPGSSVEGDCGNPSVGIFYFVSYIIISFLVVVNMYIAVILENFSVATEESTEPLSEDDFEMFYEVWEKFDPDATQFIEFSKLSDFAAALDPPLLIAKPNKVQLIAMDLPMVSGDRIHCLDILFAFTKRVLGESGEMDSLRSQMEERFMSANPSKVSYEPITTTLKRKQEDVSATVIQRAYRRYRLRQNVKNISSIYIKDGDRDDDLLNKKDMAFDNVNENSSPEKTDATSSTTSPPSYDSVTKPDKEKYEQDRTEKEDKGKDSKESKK
The description is as above. To be noted: 22° C., read-out: potency for the Nav 1.7 sodium ion channel (as measured by PatchXpress). Format: cell-based. The essentials: as §1

From patent US9273040B2 (Merck Sharp & Dohme Corp., priority 2011, dated 2016) come the findings set out here.

T1 sequence (Q14524 whole entry): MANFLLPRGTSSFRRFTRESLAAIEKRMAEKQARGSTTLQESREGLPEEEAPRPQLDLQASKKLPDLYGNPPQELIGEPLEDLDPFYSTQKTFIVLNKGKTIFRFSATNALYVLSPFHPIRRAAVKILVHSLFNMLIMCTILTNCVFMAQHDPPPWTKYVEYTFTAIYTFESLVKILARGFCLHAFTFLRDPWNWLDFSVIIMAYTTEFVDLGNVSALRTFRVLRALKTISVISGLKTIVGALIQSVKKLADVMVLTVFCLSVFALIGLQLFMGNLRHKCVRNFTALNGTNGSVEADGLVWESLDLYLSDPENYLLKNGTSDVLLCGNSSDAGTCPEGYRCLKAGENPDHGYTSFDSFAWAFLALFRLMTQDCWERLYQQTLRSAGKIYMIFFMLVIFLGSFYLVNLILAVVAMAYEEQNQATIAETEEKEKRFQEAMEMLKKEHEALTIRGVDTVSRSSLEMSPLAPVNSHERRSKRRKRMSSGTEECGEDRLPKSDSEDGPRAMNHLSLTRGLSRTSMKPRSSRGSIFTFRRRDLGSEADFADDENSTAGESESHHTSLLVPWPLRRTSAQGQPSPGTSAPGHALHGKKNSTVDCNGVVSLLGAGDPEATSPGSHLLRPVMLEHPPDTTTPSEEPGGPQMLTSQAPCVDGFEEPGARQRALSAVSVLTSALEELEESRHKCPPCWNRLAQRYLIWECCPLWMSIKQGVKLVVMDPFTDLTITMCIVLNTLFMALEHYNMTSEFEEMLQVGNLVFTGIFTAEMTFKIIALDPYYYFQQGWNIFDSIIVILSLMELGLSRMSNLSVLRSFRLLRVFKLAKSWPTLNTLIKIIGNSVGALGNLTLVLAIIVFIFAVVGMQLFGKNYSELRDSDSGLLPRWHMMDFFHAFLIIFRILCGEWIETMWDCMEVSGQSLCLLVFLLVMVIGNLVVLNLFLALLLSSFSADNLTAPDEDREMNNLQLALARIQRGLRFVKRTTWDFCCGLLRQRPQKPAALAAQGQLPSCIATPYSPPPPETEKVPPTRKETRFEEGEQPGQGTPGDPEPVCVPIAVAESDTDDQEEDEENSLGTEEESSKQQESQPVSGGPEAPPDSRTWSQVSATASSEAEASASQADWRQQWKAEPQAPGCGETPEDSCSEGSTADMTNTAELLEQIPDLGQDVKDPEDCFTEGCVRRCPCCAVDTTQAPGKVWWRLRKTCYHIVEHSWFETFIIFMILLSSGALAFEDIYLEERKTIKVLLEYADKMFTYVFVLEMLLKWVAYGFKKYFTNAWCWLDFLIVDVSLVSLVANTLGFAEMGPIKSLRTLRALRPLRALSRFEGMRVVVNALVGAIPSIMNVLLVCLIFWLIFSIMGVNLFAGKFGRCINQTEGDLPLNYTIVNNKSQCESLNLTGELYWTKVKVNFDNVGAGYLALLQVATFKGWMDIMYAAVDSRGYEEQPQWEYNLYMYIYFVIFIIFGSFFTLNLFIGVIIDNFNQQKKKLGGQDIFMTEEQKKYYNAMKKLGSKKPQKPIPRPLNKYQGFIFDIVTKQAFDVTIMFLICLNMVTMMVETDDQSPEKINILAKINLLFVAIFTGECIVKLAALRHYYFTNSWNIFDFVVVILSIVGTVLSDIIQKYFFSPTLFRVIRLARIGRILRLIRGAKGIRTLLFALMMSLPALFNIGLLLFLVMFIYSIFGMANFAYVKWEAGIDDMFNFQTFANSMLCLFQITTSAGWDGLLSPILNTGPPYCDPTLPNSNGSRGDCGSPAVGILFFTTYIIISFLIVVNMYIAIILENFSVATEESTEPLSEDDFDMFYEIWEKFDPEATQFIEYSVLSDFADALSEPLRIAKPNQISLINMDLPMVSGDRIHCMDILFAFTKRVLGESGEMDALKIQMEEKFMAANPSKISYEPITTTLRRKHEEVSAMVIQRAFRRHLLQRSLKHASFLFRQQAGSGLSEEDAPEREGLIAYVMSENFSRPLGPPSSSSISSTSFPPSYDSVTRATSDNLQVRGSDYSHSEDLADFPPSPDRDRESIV

With `O=c1oc2cc(S(=O)(=O)Nc3ncns3)c(F)cc2n1Cc1cccc2cncn12` [Compound 11-12, 5-fluoro-3-(imidazo[1,5-a]pyridin-5-ylmethyl)-2-oxo-N-1,2,4-thiadiazol-5-yl-2,3-dihydro-1,3-benzoxazole-6-sulfonamide], the “ratio of Nav 1.5:Nav 1.7 potency, determined by PatchXpress measurement” value (from here on “ratio of Nav 1.5:Nav 1.7 potency”) in assay [1] was found to be 368. Also, the IC50 in assay [2] stood at 81 nM.
In the same order, the values of `O=c1oc2cc(S(=O)(=O)Nc3ncns3)c(F)cc2n1Cc1cccc2c1C1CC1C=C2` (centres unmarked) [Compound 11-13, 3-(1a,7b-dihydro-1H-cyclopropa[a]naphthalen-7-ylmethyl)-5-fluoro-2-oxo-N-1,2,4-thiadiazol-5-yl-2,3-dihydro-1,3-benzoxazole-6-sulfonamide] are 50 and 49 nM.
In the same order, the values of `CC(c1cccc(-c2ccnn2C)c1)n1c(=O)oc2cc(S(=O)(=O)Nc3ncns3)c(F)cc21` (centres unmarked) [Compound 13-10, 5-fluoro-3-{1-[3-(1-methyl-1H-pyrazol-5-yl)phenyl]ethyl}-2-oxo-N-1,2,4-thiadiazol-5-yl-2,3-dihydro-1,3-benzoxazole-6-sulfonamide] are 256 and 63 nM.
In the same order, the values of `O=c1oc2cc(S(=O)(=O)Nc3ncns3)c(F)cc2n1[C@H](CO)c1ccccc1` [Compound 13-12, 5-fluoro-3-[(1S)-2-hydroxy-1-phenylethyl]-2-oxo-N-1,2,4-thiadiazol-5-yl-2,3-dihydro-1,3-benzoxazole-6-sulfonamide] are above 71 and 422 nM.
Turning to `C[C@H](c1cccc2ccncc12)n1c(=O)oc2cc(S(=O)(=O)Nc3ncns3)ccc21` [Compound 14-7, (R)-3-(1-(isoquinolin-8-yl)ethyl)-2-oxo-N-(1,2,4-thiadiazol-5-yl)-2,3-dihydrobenzo[d]oxazole-6-sulfonamide], in assay [1], the “ratio of Nav 1.5:Nav 1.7 potency” value was 749. Moreover, the IC50 in assay [2] came to 40 nM.
In the same order, the values of `C[C@H](c1cccc2ccncc12)n1c(=O)oc2cc(S(=O)(=O)Nc3ncns3)c(F)cc21` [Compound 14-8, 5-fluoro-3-[(1R)-1-isoquinolin-8-ylethyl]-2-oxo-N-1,2,4-thiadiazol-5-yl-2,3-dihydro-1,3-benzoxazole-6-sulfonamid] are 114 and 71 nM.
In the same order, the values of `C[C@@H](c1cccc2ccncc12)n1c(=O)oc2cc(S(=O)(=O)Nc3ncns3)ccc21` [Compound 14-9, 3-[(1S)-1-isoquinolin-8-ylethyl]-2-oxo-N-1,2,4-thiadiazol-5-yl-2,3-dihydro-1,3-benzoxazole-6-sulfonamide] are 37 and 808 nM.
In the same order, the values of `C[C@@H](c1cccc2ccncc12)n1c(=O)oc2cc(S(=O)(=O)Nc3ncns3)c(F)cc21` [Compound 14-10, 5-fluoro-3-[(1S)-1-isoquinolin-8-ylethyl]-2-oxo-N-1,2,4-thiadiazol-5-yl-2,3-dihydro-1,3-benzoxazole-6-sulfonamide] are 27 and 779 nM.
Consider `C[C@H](c1cccc2cncn12)n1c(=O)oc2cc(S(=O)(=O)Nc3ncns3)c(F)cc21` [Compound 15-3, (R)-5-Fluoro-3-(1-(imidazo[1,5-a]pyridin-5-yl)ethyl)-2-oxo-N-(1,2,4-thiadiazol-5-yl)-2,3-dihydrobenzo[d]oxazole-6-sulfonamide], for which, in assay [1], the “ratio of Nav 1.5:Nav 1.7 potency” value is listed as 122. The IC50 in assay [2] came to 134 nM.
With `C[C@@H](c1cccc2cncn12)n1c(=O)oc2cc(S(=O)(=O)Nc3ncns3)c(F)cc21` [Compound 15-4, 5-fluoro-3-[(1S)-1-imidazo[1,5-a]pyridin-5-ylethyl]-2-oxo-N-1,2,4-thiadiazol-5-yl-2,3-dihydro-1,3-benzoxazole-6-sulfonamide], in assay [1], the “ratio of Nav 1.5:Nav 1.7 potency” value turned out to be 60. The IC50 in assay [2] was found to be 235 nM.
